≈ marks a conversion by molar mass, not a printed value. Calls of active or inactive are those of the source. The calls are words filed in the database; no cut-off is given here.
Assays:
Staphylococcus aureus [1] = experiment: Inhibition of total viable cell number in methicillin-resistant Staphylococcus aureus A1024; format: functional, organism-based
Staphylococcus aureus [2] = experiment: Increase in small RNA level in methicillin-resistant Staphylococcus aureus A1024 at 20 ng/mL by agilent bioanalyzer analysis; format: functional
Staphylococcus aureus [3] = experiment: Effect on 16S rRNA level in methicillin-resistant Staphylococcus aureus A1024 at 20 ng/mL by agilent bioanalyzer analysis; format: functional
Staphylococcus aureus [4] = experiment: Reduction of 23S rRNA level in methicillin-resistant Staphylococcus aureus A1024 at 10 ng/mL by agilent bioanalyzer analysis; format: functional; set-up: scale not given: the % may be the effect or the level left
Staphylococcus aureus [5] = experiment: Inhibition of ribosomal 30S subunit synthesis in methicillin-resistant Staphylococcus aureus A1024 at 8 ng/mL by [3H]uridine pulse-chase labeling method; format: functional, organism-based
Staphylococcus aureus [6] = experiment: Antibacterial activity against methicillin-resistant Staphylococcus aureus A1024; format: functional
Staphylococcus aureus [7] = experiment: Inhibition of protein synthesis in methicillin-resistant Staphylococcus aureus A1024; format: functional, organism-based
Staphylococcus aureus [8] = experiment: Effect on 16S rRNA level in wild type Staphylococcus aureus RN1786 at 10 ng/mL by agilent bioanalyzer analysis; format: functional
Staphylococcus aureus [9] = experiment: Inhibition of ribosomal 30S subunit formation in wild type Staphylococcus aureus RN1786; format: functional, organism-based
Staphylococcus aureus [10] = experiment: Inhibition of total viable cell number in wild type Staphylococcus aureus RN1786; format: functional, organism-based
Staphylococcus aureus [11] = experiment: Inhibition of ribosomal 30S subunit formation in methicillin-resistant Staphylococcus aureus A1024; format: functional, organism-based
Staphylococcus aureus [12] = experiment: Inhibition of ribosomal 50S subunit synthesis in wild type Staphylococcus aureus RN1786 at 8 ng/mL by [3H]uridine pulse-chase labeling method; format: functional, organism-based
Staphylococcus aureus [13] = experiment: Reduction of 23S rRNA level in methicillin-resistant Staphylococcus aureus A1024 at 20 ng/mL by agilent bioanalyzer analysis; format: functional; set-up: scale not given: the % may be the effect or the level left
Staphylococcus aureus [14] = experiment: Effect on 16S rRNA level in wild type Staphylococcus aureus RN1786 at 20 ng/mL by agilent bioanalyzer analysis; format: functional
Staphylococcus aureus [15] = experiment: Inhibition of ribosomal 50S subunit synthesis in methicillin-resistant Staphylococcus aureus A1024; format: functional, organism-based
Staphylococcus aureus [16] = experiment: Antibacterial activity against wild type Staphylococcus aureus RN1786; format: functional
Staphylococcus aureus [17] = experiment: Inhibition of ribosomal 50S subunit synthesis in methicillin-resistant Staphylococcus aureus A1024 at 8 ng/mL by [3H]uridine pulse-chase labeling method; format: functional, organism-based
Staphylococcus aureus [18] = experiment: Effect on 16S rRNA level in methicillin-resistant Staphylococcus aureus A1024 at 10 ng/mL by agilent bioanalyzer analysis; format: functional
Staphylococcus aureus [19] = experiment: Inhibition of protein synthesis in wild type Staphylococcus aureus RN1786; format: functional, organism-based
Staphylococcus aureus [20] = experiment: Reduction of 23S rRNA level in wild type Staphylococcus aureus RN1786 at 10 ng/mL by agilent bioanalyzer analysis; format: functional; set-up: scale not given: the % may be the effect or the level left
Staphylococcus aureus [21] = experiment: Increase in small RNA level in methicillin-resistant Staphylococcus aureus A1024 at 10 ng/mL by agilent bioanalyzer analysis; format: functional
Staphylococcus aureus [22] = experiment: Inhibition of ribosomal 50S subunit synthesis in wild type Staphylococcus aureus RN1786; format: functional, organism-based
Staphylococcus aureus [23] = experiment: Increase in small RNA level in wild type Staphylococcus aureus RN1786 at 20 ng/mL by agilent bioanalyzer analysis; format: functional
Staphylococcus aureus [24] = experiment: Reduction of 23S rRNA level in wild type Staphylococcus aureus RN1786 at 20 ng/mL by agilent bioanalyzer analysis; format: functional; set-up: scale not given: the % may be the effect or the level left
Staphylococcus aureus [25] = experiment: Increase in small RNA level in wild type Staphylococcus aureus RN1786 at 10 ng/mL by agilent bioanalyzer analysis; format: functional

C=C[C@]1(C)C[C@@H](OC(=O)CS[C@@H]2C[C@H]3CC[C@@H](C2)N3C)[C@]2(C)[C@H](C)CC[C@]3(CCC(=O)[C@H]32)[C@@H](C)[C@@H]1O [RETAPAMULIN]
IC50 (Staphylococcus aureus [1]): 0.025 µg/mL (≈ 0.0483 µM) | Activity (Staphylococcus aureus [2]): 57.6% | Activity (Staphylococcus aureus [3]): 18.8% | Activity (Staphylococcus aureus [4]): 14.1% | Activity (Staphylococcus aureus [5]): inactive | MIC (Staphylococcus aureus [6]): 0.055 µg/mL (≈ 0.106 µM) | IC50 (Staphylococcus aureus [7]): 0.017 µg/mL (≈ 0.0328 µM) | Activity (Staphylococcus aureus [8]): 19.8% | Activity (Staphylococcus aureus [9]): inactive | IC50 (Staphylococcus aureus [10]): 0.012 µg/mL (≈ 0.0232 µM) | Activity (Staphylococcus aureus [11]): inactive | Activity (Staphylococcus aureus [12]): Active | Activity (Staphylococcus aureus [13]): 12.3% | Activity (Staphylococcus aureus [14]): 19.7% | IC50 (Staphylococcus aureus [15]): 0.02 µg/mL (≈ 0.0386 µM) | MIC (Staphylococcus aureus [16]): 0.035 µg/mL (≈ 0.0676 µM) | Activity (Staphylococcus aureus [17]): Active | Activity (Staphylococcus aureus [18]): 18.8% | IC50 (Staphylococcus aureus [19]): 5 ng/mL (≈ 0.00966 µM) | Activity (Staphylococcus aureus [20]): 15.3% | Activity (Staphylococcus aureus [21]): 52.3% | IC50 (Staphylococcus aureus [22]): 0.027 µg/mL (≈ 0.0521 µM) | Activity (Staphylococcus aureus [23]): 70.6% | Activity (Staphylococcus aureus [24]): 16.6% | Activity (Staphylococcus aureus [25]): 68.7%

Source: ChEMBL document CHEMBL1143405, “Retapamulin inhibition of translation and 50S ribosomal subunit formation in Staphylococcus aureus cells” (Antimicrob Agents Chemother, 2007)
